Measurements taken from ChEMBL document CHEMBL5143557, “Synthesis and biological evaluation of 3β-O-neoglycosides of caudatin and its analogues as potential anticancer agents” (Bioorg Med Chem, 2022).
pIC50: −log10 of the molar value.

Assays:
Type in all cases: functional, cell-based
[1] = tested on: HeLa; test: Antiproliferative activity against human HeLa cells after 48 hrs by MTT assay
[2] = tested on: HCT-116; test: Antiproliferative activity against human HCT-116 cells after 48 hrs by MTT assay; conditions: HCT-116, 48 h
[3] = tested on: HepG2; test: Antiproliferative activity against human HepG2 cells after 48 hrs by MTT assay; conditions: HepG2, 48 h
[4] = tested on: MCF7; test: Antiproliferative activity against human MCF7 cells after 48 hrs by MTT assay; conditions: MCF7, 48 h

Row | SMILES | pIC50 [1] | pIC50 [2] | pIC50 [3] | pIC50 [4]
1 | CC(=O)OC[C@H]1O[C@@H](O[C@H]2CC[C@@]3(C)C(=CC[C@]4(O)[C@@H]3C[C@@H](OC(=O)/C=C/c3ccccc3)[C@@]3(C)[C@]4(O)CC[C@@]3(O)[C@H](C)OC(=O)c3cccnc3)C2)[C@H](OC(C)=O)[C@@H](OC(C)=O)[C@@H]1OC(C)=O | 4.10 | 4.44 | 4.58 | 4.08
2 | CC(=O)O[C@H]1[C@H](OC(C)=O)[C@@H](O[C@H]2CC[C@@]3(C)C(=CC[C@]4(O)[C@@H]3C[C@@H](OC(=O)/C=C(\C)C(C)C)[C@@]3(C)[C@]4(O)CC[C@@]3(O)C(C)=O)C2)O[C@@H](C)[C@H]1OC(C)=O | 4.50 | 4.73 | 4.72 | 4.50
3 | CC(=O)O[C@@H]1[C@@H](O[C@H]2CC[C@@]3(C)C(=CC[C@]4(O)[C@@H]3C[C@@H](OC(=O)/C=C(\C)C(C)C)[C@@]3(C)[C@]4(O)CC[C@@]3(O)C(C)=O)C2)OC[C@@H](OC(C)=O)[C@H]1OC(C)=O | 4.22 | 4.53 | 4.28 | 4.28
4 | CC(=O)O[C@@H]1[C@@H](OC(C)=O)[C@H](O[C@H]2CC[C@@]3(C)C(=CC[C@]4(O)[C@@H]3C[C@@H](OC(=O)/C=C/c3ccccc3)[C@@]3(C)[C@]4(O)CC[C@@]3(O)[C@H](C)OC(=O)c3cccnc3)C2)OC[C@H]1OC(C)=O | < 4.00 | 4.20 | 4.15 | < 4.00
5 | COc1cc2c(c(OC)c1OC)-c1ccc(OC)c(=O)cc1[C@@H](NC(C)=O)CC2 [COLCHICINE] |  | 7.34 | 7.19 | 7.55
6 | CC(=O)OC[C@H]1O[C@@H](O[C@H]2CC[C@@]3(C)C(=CC[C@]4(O)[C@@H]3C[C@@H](OC(=O)/C=C/c3ccccc3)[C@@]3(C)[C@]4(O)CC[C@@]3(O)[C@H](C)OC(=O)c3cccnc3)C2)[C@H](OC(C)=O)[C@@H](OC(C)=O)[C@H]1OC(C)=O | 4.68 | 5.15 | 5.07 | 4.61
7 | CC(=O)O[C@@H]1[C@@H](O[C@H]2CC[C@@]3(C)C(=CC[C@]4(O)[C@@H]3C[C@@H](OC(=O)/C=C(\C)C(C)C)[C@@]3(C)[C@]4(O)CC[C@@]3(O)C(C)=O)C2)OC[C@H](OC(C)=O)[C@@H]1OC(C)=O | 4.74 | 4.80 | 5.16 | 4.61
8 | CC(=O)[C@]1(O)CC[C@@]2(O)[C@]1(C)[C@H](OC(=O)/C=C(\C)C(C)C)C[C@@H]1[C@@]3(C)CC[C@H](O[C@@H]4OC[C@@H](O)[C@H](O)[C@H]4O)CC3=CC[C@]12O | < 4.00 | 4.04 | 4.04 | 4.02
9 | CC(=O)O[C@@H]1[C@@H](O[C@H]2CC[C@@]3(C)C(=CC[C@]4(O)[C@@H]3C[C@@H](OC(=O)/C=C(\C)C(C)C)[C@@]3(C)[C@]4(O)CC[C@@]3(O)C(C)=O)C2)OC[C@H](OC(C)=O)[C@H]1OC(C)=O | 4.55 | 4.92 | 4.80 | 4.33
10 | CC(=O)O[C@@H]1[C@@H](OC(C)=O)[C@H](O[C@H]2CC[C@@]3(C)C(=CC[C@]4(O)[C@@H]3C[C@@H](OC(=O)c3ccc(O)cc3)[C@@]3(C)[C@]4(O)CC[C@@]3(O)C(C)=O)C2)OC[C@H]1OC(C)=O | 4.22 | 4.45 | 4.55 | 4.26
11 | CC(=O)O[C@@H]1[C@@H](OC(C)=O)[C@H](C)O[C@@H](O[C@H]2CC[C@@]3(C)C(=CC[C@]4(O)[C@@H]3C[C@@H](OC(=O)c3ccc(O)cc3)[C@@]3(C)[C@]4(O)CC[C@@]3(O)C(C)=O)C2)[C@@H]1OC(C)=O | 4.24 | 4.31 | 4.38 | 4.27
12 | CC(=O)OC[C@H]1O[C@@H](O[C@H]2CC[C@@]3(C)C(=CC[C@]4(O)[C@@H]3C[C@@H](OC(=O)c3ccc(O)cc3)[C@@]3(C)[C@]4(O)CC[C@@]3(O)C(C)=O)C2)[C@H](OC(C)=O)[C@@H](OC(C)=O)[C@@H]1OC(C)=O | 4.02 | 4.18 | 4.13 | 4.04
13 | CC(=O)[C@]1(O)CC[C@@]2(O)[C@]1(C)[C@H](OC(=O)c1ccc(O)cc1)C[C@@H]1[C@@]3(C)CC[C@H](O[C@@H]4O[C@H](CO)[C@H](O)[C@H](O)[C@H]4O)CC3=CC[C@]12O | 4.60 | 4.56 | 4.62 | 4.68
14 | CC(=O)[C@]1(O)CC[C@@]2(O)[C@]1(C)[C@H](OC(=O)c1ccc(O)cc1)C[C@@H]1[C@@]3(C)CC[C@H](O[C@@H]4O[C@H](CO)[C@@H](O)[C@H](O)[C@H]4O)CC3=CC[C@]12O | 4.02 | 4.12 | 4.19 | 4.03
15 | CC(=O)O[C@@H]1[C@@H](OC(C)=O)[C@H](O[C@H]2CC[C@@]3(C)C(=CC[C@]4(O)[C@@H]3C[C@@H](OC(=O)/C=C(\C)C(C)C)[C@@]3(C)[C@]4(O)CC[C@@]3(O)C(C)=O)C2)OC[C@@H]1OC(C)=O | 4.47 | 4.62 | 4.63 | 4.37
16 | CC(=O)O[C@@H]1[C@@H](OC(C)=O)[C@H](C)O[C@@H](O[C@H]2CC[C@@]3(C)C(=CC[C@]4(O)[C@@H]3C[C@@H](OC(=O)/C=C/c3ccccc3)[C@@]3(C)[C@]4(O)CC[C@@]3(O)[C@H](C)OC(=O)c3cccnc3)C2)[C@@H]1OC(C)=O | < 4.00 | 4.15 | 4.16 | < 4.00
17 | CC(=O)[C@]1(O)CC[C@@]2(O)[C@]1(C)[C@H](OC(=O)/C=C(\C)C(C)C)C[C@@H]1[C@@]3(C)CC[C@H](O[C@H]4C[C@H](O)[C@H](O)CO4)CC3=CC[C@]12O | 4.06 | 4.43 | 4.40 | 4.03
18 | CC(=O)O[C@@H]1[C@@H](OC(C)=O)[C@H](C)O[C@@H](O[C@H]2CC[C@@]3(C)C(=CC[C@]4(O)[C@@H]3C[C@@H](OC(=O)/C=C(\C)C(C)C)[C@@]3(C)[C@]4(O)CC[C@@]3(O)C(C)=O)C2)[C@@H]1OC(C)=O | < 4.00 | 4.58 | 4.14 | 4.02
19 | CC(=O)O[C@H]1C[C@H](O[C@H]2CC[C@@]3(C)C(=CC[C@]4(O)[C@@H]3C[C@@H](OC(=O)/C=C(\C)C(C)C)[C@@]3(C)[C@]4(O)CC[C@@]3(O)C(C)=O)C2)OC[C@H]1OC(C)=O | 4.36 | 4.50 | 4.85 | 4.58
20 | CC(=O)[C@]1(O)CC[C@@]2(O)[C@]1(C)[C@H](OC(=O)/C=C(\C)C(C)C)C[C@@H]1[C@@]3(C)CC[C@H](O[C@@H]4OC[C@H](O)[C@H](O)[C@H]4O)CC3=CC[C@]12O | < 4.00 | < 4.00 | 4.06 | < 4.00
21 | CC(=O)OC[C@H]1O[C@H](O[C@H]2CC[C@@]3(C)C(=CC[C@]4(O)[C@@H]3C[C@@H](OC(=O)/C=C(\C)C(C)C)[C@@]3(C)[C@]4(O)CC[C@@]3(O)C(C)=O)C2)[C@@H](OC(C)=O)[C@@H](OC(C)=O)[C@@H]1OC(C)=O | 4.15 | 4.81 | 4.62 | 4.37
22 | CC(=O)O[C@H]1[C@@H](OC(C)=O)[C@@H](C)O[C@@H](O[C@H]2CC[C@@]3(C)C(=CC[C@]4(O)[C@@H]3C[C@@H](OC(=O)/C=C(\C)C(C)C)[C@@]3(C)[C@]4(O)CC[C@@]3(O)C(C)=O)C2)[C@@H]1OC(C)=O | 4.35 | 4.69 | 4.62 | 4.42
23 | CC(=O)OC[C@H]1O[C@@H](O[C@H]2CC[C@@]3(C)C(=CC[C@]4(O)[C@@H]3C[C@@H](OC(=O)/C=C(\C)C(C)C)[C@@]3(C)[C@]4(O)CC[C@@]3(O)C(C)=O)C2)[C@H](OC(C)=O)[C@@H](OC(C)=O)[C@H]1OC(C)=O | 4.61 | 5.13 | 5.01 | 4.77
24 | CC(=O)OC[C@H]1O[C@@H](O[C@H]2CC[C@@]3(C)C(=CC[C@]4(O)[C@@H]3C[C@@H](OC(=O)c3ccc(O)cc3)[C@@]3(C)[C@]4(O)CC[C@@]3(O)C(C)=O)C2)[C@H](OC(C)=O)[C@@H](OC(C)=O)[C@H]1OC(C)=O | 4.64 | 5.03 | 5.00 | 4.68
25 | CC(=O)[C@]1(O)CC[C@@]2(O)[C@]1(C)[C@H](OC(=O)c1ccc(O)cc1)C[C@@H]1[C@@]3(C)CC[C@H](O[C@@H]4O[C@@H](C)[C@H](O)[C@@H](O)[C@H]4O)CC3=CC[C@]12O | 4.04 | 4.22 | 4.26 | 4.05
26 | CC(=O)[C@]1(O)CC[C@@]2(O)[C@]1(C)[C@H](OC(=O)c1ccc(O)cc1)C[C@@H]1[C@@]3(C)CC[C@H](O)CC3=CC[C@]12O | < 4.00 | 4.14 | 4.10 | 4.08
27 | CC(=O)O[C@H]1[C@H](O[C@H]2CC[C@@]3(C)C(=CC[C@]4(O)[C@@H]3C[C@@H](OC(=O)/C=C(\C)C(C)C)[C@@]3(C)[C@]4(O)CC[C@@]3(O)C(C)=O)C2)OC[C@@H](OC(C)=O)[C@H]1OC(C)=O | 4.23 | 4.28 | 4.51 | 4.21
28 | CC(=O)N[C@H]1[C@H](O[C@H]2CC[C@@]3(C)C(=CC[C@]4(O)[C@@H]3C[C@@H](OC(=O)/C=C(\C)C(C)C)[C@@]3(C)[C@]4(O)CC[C@@]3(O)C(C)=O)C2)O[C@H](COC(C)=O)[C@@H](OC(C)=O)[C@@H]1OC(C)=O | 4.62 | 4.76 | 5.26 | 4.68
29 | CC(=O)[C@]1(O)CC[C@@]2(O)[C@]1(C)[C@H](OC(=O)/C=C(\C)C(C)C)C[C@@H]1[C@@]3(C)CC[C@H](O[C@H]4OC[C@H](O)[C@H](O)[C@@H]4O)CC3=CC[C@]12O | < 4.00 | 4.14 | 4.29 | < 4.00
30 | CC(=O)O[C@@H]1[C@@H](OC(C)=O)[C@H](O[C@H]2CC[C@@]3(C)C(=CC[C@]4(O)[C@@H]3C[C@@H](OC(=O)/C=C(\C)C(C)C)[C@@]3(C)[C@]4(O)CC[C@@]3(O)C(C)=O)C2)OC[C@H]1OC(C)=O | 4.07 | 4.46 | 4.37 | 4.30
